{"source": "patent US20240335383A1", "about": "“NANOPARTICULATE FORMULATION” (NewImmune II, LLC, priority 2021, published 2024)", "key": {"[1]": {"set-up": "species or system human", "text": "The efficacy of the presently disclosed compositions and nanoparticles allows for the administration of relatively low doses."}, "[2]": {"conditions": "mice, rats, and monkeys; adverse effects limited to the central nervous system; cited from earlier work"}, "T effector memory cells": {"tested_on": "T effector memory cells", "conditions": "Fiorenza et al, 2012; cited from earlier work"}, "[3]": {"conditions": "rats, oral, repeated dose up to 6 months; cited from earlier work"}, "[4]": {"conditions": "30 mg subcutaneous dose, healthy human volunteers; cited from earlier work"}, "[5]": {"conditions": "mice, dermal exposure; cited from earlier work"}, "[6]": {"tested_on": "mesothelioma, renal cell carcinoma and 4T1 breast cancer", "conditions": "mouse models, cited from earlier work"}, "[7]": {"conditions": "imiquimod; cited from earlier work"}, "[8]": {"conditions": "EMA toxicology review of Aldara; cited from earlier work"}, "[9]": {"conditions": "injected subcutaneously into patients; cited from earlier work"}, "[10]": {"conditions": "monkeys, oral, repeated dose up to 6 months; cited from earlier work"}, "[11]": {"conditions": "rats, single subcutaneous dose; cited from earlier work"}, "[12]": {"conditions": "pregnant female rabbits, intravenous, gestational Days 6-18; cited from earlier work"}, "[13]": {"conditions": "Britton-Robinson buffer, FIG. 1"}, "[14]": {"conditions": "rabbits, doses of 2000 and 5000 mg/kg under occlusion; cited from earlier work"}, "IL-2 stimulated B cells": {"tested_on": "IL-2 stimulated B cells", "conditions": "Glaum et al, 2009; cited from earlier work"}}, "note": "Like-named read-outs stand apart in the source and are kept apart here."}
{"molecule": "2-hydroxypropyl-β-cyclodextrin [HP-β-CD]", "values": [{"measurement": "Safety Factor (excipient dose from approved drug vs excipient dose from NP)", "setting": "[1]", "value": "11-fold"}]}
{"molecule": "CC(C)Cn1cnc2c(N)nc3ccccc3c21", "note": "[imiquimod, 1-(2-methylpropyl)imidazo[4,5-c]quinolin-4-amine]", "values": [{"measurement": "single dose toxicity", "setting": "[2]", "value": "high degree of safety"}, {"measurement": "cytotoxic activity of T effector memory cells", "setting": "T effector memory cells", "value": "enhances the cytotoxic activity"}, {"measurement": "no observed adverse effect level (NOAEL)", "setting": "[3]", "value": 3, "unit": "mg/kg"}, {"measurement": "tolerability of subcutaneous dose", "setting": "[4]", "value": "well tolerated"}, {"measurement": "carcinogenicity: incidence of tumors or non-neoplastic lesions", "setting": "[5]", "value": "no increase in the incidence of tumors or non-neoplastic lesions"}, {"measurement": "overt signs of toxicity (such as weight loss and ruffled fur)", "setting": "[6]; 50 μL injections of 50 μg/mL imiquimod", "value": "not associated with overt signs of toxicity"}, {"measurement": "increase in survival time at maximum inhibition of tumor growth", "setting": "[6]; intratumoral, 50 μL injections of 50 μg/mL imiquimod (p<0.05)", "value": "> 50", "unit": "%"}, {"measurement": "growth of tumor", "setting": "[6]; only locally (intratumoral) delivered", "value": "consistently and significantly retarded the growth of tumor"}, {"measurement": "in vivo half-life", "setting": "[7]", "value": "approximately 3 hours"}, {"measurement": "effect on fertility", "setting": "[8]", "value": "did not affect fertility"}, {"measurement": "teratogenicity and genotoxicity", "setting": "[8]", "value": "neither teratogenic nor genotoxic"}, {"measurement": "systemic exposure", "setting": "[9]", "value": "minimal systemic exposure"}, {"measurement": "no observed adverse effect level (NOAEL)", "setting": "[10]", "value": 3, "unit": "mg/kg"}, {"measurement": "subcutaneous lethal dose", "setting": "[11]", "value": 20, "unit": "mg/kg"}, {"measurement": "dose with no treatment related effects on embryofetal toxicity or teratogenicity", "setting": "[12]", "value": 2, "unit": "mg/kg/day"}, {"measurement": "pH of maximum solubility in aqueous solution", "setting": "[13]", "value": "≤ 2"}, {"measurement": "aqueous solubility above pH 6", "setting": "[13]; above pH 6", "value": "sparingly soluble"}, {"measurement": "dermal toxicity", "setting": "[14]", "value": "no deaths and no signs of toxicity other than mild transient erythema at the application site"}]}
{"molecule": "CCOCc1nc2c(N)nc3ccccc3c2n1CC(C)(C)O", "note": "[resiquimod]", "values": [{"measurement": "IgM and IgG production by IL-2 stimulated B cells", "setting": "IL-2 stimulated B cells", "value": "synergistically enhance IgM and IgG production"}]}
{"molecule": "polyethylene glycol 4000 [PEG 4000]", "values": [{"measurement": "Safety Factor (excipient dose from approved drug vs excipient dose from NP)", "setting": "[1]", "value": "2-fold"}]}
